PubChem BioAssay AID1845215 (Molecular Pharmacology Branch, DTP, NCI, 2023)

System: SW 1271 complex tumor spheroid viability
Test: Anticancer human tumor SW 1271 cell line growth inhibition;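 note: spheroids exposed to agents for seven days before readout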;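 for viability, T/C: percent of DMSO vehicle control luminescence so 100% = vehicle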
Details: for IC50: curve of first compound; for viability, T/C: stronger effect = lower value
Source text: Multicellular complex tumor spheroid response to DNA repair inhibitors in combination with DNA-damaging drugs
This study explores the anticancer activities of DNA-damaging drugs and inhibitors of DNA damage repair, both as single agents and in combinations. Complex tumor spheroids comprised of malignant cells, endothelial cells and mesenchymal stem cells served as an in vitro model for human solid tumors. This model system incorporates physiologically relevant features and patient-derived or established malignant cell lines with clinically relevant genetic alterations from many tumor types. Twenty-six patient-derived or established malignant cell lines were evaluated representing sarcoma, melanoma, small cell lung cancer (SCLC), non-small cell lung cancer (NSCLC), as well as bladder, ovarian and pancreatic cancers. The concentration ranges selected for each drug and investigational agent were based upon clinically achievable concentrations if the clinical Cmax of the agent was known.
Compounds. The drugs and compounds olaparib (NSC753686), talazoparib (NSC767125), berzosertib (NSC777718), elimusertib (NSC800525), nedisertib (NSC802822), VX-984 (NSC792969), AZD-1390 (NSC803789), temozolomide (NSC362856), topotecan (NSC609699), trabectedin (NSC813783), staurosporine (NSC755774), and gemcitabine (NSC613327) were obtained from the National Cancer Institute (NCI) Developmental Therapeutics Program Chemical Repository. The FDA-approved anticancer drug set is available from the Developmental Therapeutics Program at https://dtp.cancer.gov/organization/dscb/obtaining/available_plates.htm. […] The stock solutions were prepared in dimethyl sulfoxide (DMSO, Sigma-Aldrich, St. Louis, MO, cat. D2650) at 400-fold the tested concentration and stored at -70 degrees C. Prior to their use, the stock solutions were diluted in fresh medium and the final DMSO concentration in the assay was 0.25% (v/v). All drugs and investigational agents were tested over a range starting from a high concentration at or near the clinical Cmax and decreasing in half-log increments. If the clinical Cmax for an agent had not been determined, the highest concentration tested was 10 microM.
Cell Lines. The patient-derived cancer cell (PDC) lines: 156681-154-R-J1-PDC, 283228-195-R-J1-PDC, 287954-098-R-J1-PDC, 292921-168-R-J2-PDC, 349418-098-R-PDC, 425362-245-T-J1-PDC, 556581-035-R-J1-PDC, and BL0293-F563-PDC were received from the NCI Patient-Derived Models Repository (PDMR, https://pdmr.cancer.gov). The established cell lines HS-SY-2 (RRID:CVCL_8719), MPNST, and SYO-1 (RRID:CVCL_7146) were obtained from the Sloan Kettering Institute. The alveolar soft parts sarcoma cell line ASPS-1 (RRID:CVCL_S738) was established at the NCI and grown from internal seed stocks. The following established cell lines were purchased from the American Type Culture Collection (ATCC, Manassas, VA): G-401 (ATCC, cat. CRL-1441, RRID:CVCL_0270), SW982 (ATCC, cat. HTB-93, RRID:CVCL_1734), VA-ES-BJ (ATCC, cat. CRL-2138, RRID:CVCL_1785), NCI-H719 (ATCC, cat. CRL-5837, RRID:CVCL_1582), NCI-H196 (ATCC, cat. CRL-5823, RRID:CVCL_1509), NCI-H841 (ATCC, cat. CRL-5845, RRID:CVCL_1595), NCI-H1618 (ATCC, cat. CRL-5879, RRID:CVCL_1480), NCI-H1876 (ATCC, cat. CRL-5902, RRID:CVCL_1503), DMS 114 (ATCC, cat. CRL-2066; RRID:CVCL_1174), NCI-H211 (ATCC, cat. CRL-5824; RRID:CVCL_1529), and SW 1271 (ATCC, cat. CRL-2177, RRID:CVCL_1716). The small cell lung cancer cell line COR-L88 was purchased from Sigma-Aldrich (cat. 92031917-1VL, RRID:CVCL_1141). The non-small cell lung cancer cell lines NCI-H226 (RRID:CVCL_1544) and NCI-H322M (RRID:CVCL_1557) were established at the NCI and grown from internal seed stocks. Pooled donor human umbilical vein endothelial cells (HUVEC, Lonza, cat. CC-2519) and human mesenchymal stem cells (hMSC, Lonza, cat. PT-2501) were purchased from Lonza (Walkersville, MD).
Cell Culture. All cells were maintained in an incubator at 37 degrees C and 5% CO2 with 95% humidity. […]

[1] = second compound 0.003 µM, first compound 0.0316 µM
[2] = second compound 0.003 µM, first compound 0.1 µM
[3] = second compound 0.003 µM, first compound 0.316 µM
[4] = second compound 0.003 µM, first compound 1 µM
[5] = second compound 0.003 µM, first compound 3.16 µM
[6] = second compound 0.003 µM, first compound 10 µM
[7] = second compound 0.00949 µM, first compound 0.0316 µM
[8] = second compound 0.00949 µM, first compound 0.1 µM
[9] = second compound 0.00949 µM, first compound 0.316 µM
[10] = second compound 0.00949 µM, first compound 1 µM
[11] = second compound 0.00949 µM, first compound 3.16 µM
[12] = second compound 0.00949 µM, first compound 10 µM
[13] = second compound 0.03 µM, first compound 0.0316 µM
[14] = second compound 0.03 µM, first compound 0.1 µM
[15] = second compound 0.03 µM, first compound 0.316 µM
[16] = second compound 0.03 µM, first compound 1 µM
[17] = second compound 0.03 µM, first compound 3.16 µM
[18] = second compound 0.03 µM, first compound 10 µM
[19] = second compound 0.0949 µM, first compound 0.0316 µM
[20] = second compound 0.0949 µM, first compound 0.1 µM
[21] = second compound 0.0949 µM, first compound 0.316 µM
[22] = second compound 0.0949 µM, first compound 1 µM
[23] = second compound 0.0949 µM, first compound 3.16 µM
[24] = second compound 0.0949 µM, first compound 10 µM
[25] = second compound 0.3 µM, first compound 0.0316 µM
[26] = second compound 0.3 µM, first compound 0.1 µM
[27] = second compound 0.3 µM, first compound 0.316 µM
[28] = second compound 0.3 µM, first compound 1 µM
[29] = second compound 0.3 µM, first compound 3.16 µM
[30] = second compound 0.3 µM, first compound 10 µM

Compound | IC50 (second compound 0.003 µM) | IC50 (second compound 0.00949 µM) | IC50 (second compound 0.03 µM) | IC50 (second compound 0.0949 µM) | IC50 (second compound 0.3 µM) | viability, T/C [1] | viability, T/C [2] | viability, T/C [3] | viability, T/C [4] | viability, T/C [5] | viability, T/C [6] | viability, T/C [7] | viability, T/C [8] | viability, T/C [9] | viability, T/C [10] | viability, T/C [11] | viability, T/C [12] | viability, T/C [13] | viability, T/C [14] | viability, T/C [15] | also measured
CC1COCCN1c1cc(-c2ccnn2C)c2ccnc(-c3ccn[nH]3)c2n1 (stereo not given) + CC[C@@]1(O)C(=O)OCc2c1cc1n(c2=O)Cc2cc3c(CN(C)C)c(O)ccc3nc2-1 | < 31.6 nM | < 31.6 nM | < 31.6 nM | < 31.6 nM | < 31.6 nM | 26% | 11.3% | 4.59% | 2.3% | 1.84% | 1.92% | 6.62% | 4.56% | 3.33% | 2.14% | 1.49% | 1.95% | 6.54% | 4.67% | 3.37% | viability, T/C [16]: 2.33%; viability, T/C [17]: 1.73%; viability, T/C [18]: 1.79%; viability, T/C [19]: 8.42%; viability, T/C [20]: 6.2%; viability, T/C [21]: 4.79%; viability, T/C [22]: 2.58%; viability, T/C [23]: 1.54%; viability, T/C [24]: 1.64%; viability, T/C [25]: 5.08%; viability, T/C [26]: 3.04%; viability, T/C [27]: 2.79%; viability, T/C [28]: 2.96%; viability, T/C [29]: 1.02%; viability, T/C [30]: 0.73%
COc1cc(C)[nH]c(=O)c1CN1CCc2c(Cl)cc(C(OC)C3COC3)c(Cl)c2C1=O (stereo not given) + CC[C@@]1(O)C(=O)OCc2c1cc1n(c2=O)Cc2cc3c(CN(C)C)c(O)ccc3nc2-1 | > 10000 nM | > 10000 nM | < 31.6 nM | < 31.6 nM | < 31.6 nM | 90.4% | 94.9% | 93.3% | 93.3% | 85.3% | 75.2% | 73.6% | 70.4% | 69.6% | 57.3% | 64.9% | 56.5% | 29.6% | 28.5% | 34.3% | viability, T/C [16]: 31.1%; viability, T/C [17]: 32.4%; viability, T/C [18]: 31%; viability, T/C [19]: 28.8%; viability, T/C [20]: 30.5%; viability, T/C [21]: 29.5%; viability, T/C [22]: 32.5%; viability, T/C [23]: 33.1%; viability, T/C [24]: 23.5%; viability, T/C [25]: 14.2%; viability, T/C [26]: 16.1%; viability, T/C [27]: 18.8%; viability, T/C [28]: 16.7%; viability, T/C [29]: 13.7%; viability, T/C [30]: 10.9%
Cc1cc(C)c(CNC(=O)c2cc(-c3ccc(CN4CCOCC4)cc3)cc3c2cnn3C2CCCC2)c(=O)[nH]1 + CC[C@@]1(O)C(=O)OCc2c1cc1n(c2=O)Cc2cc3c(CN(C)C)c(O)ccc3nc2-1 | 2120 nM | 32.9 nM | < 31.6 nM | < 31.6 nM | < 31.6 nM | 83.2% | 84.7% | 70.6% | 59.8% | 45.5% | 34.9% | 51.3% | 38.2% | 32.5% | 26.9% | 20.4% | 16.3% | 28.2% | 26.4% | 24.4% | viability, T/C [16]: 27%; viability, T/C [17]: 24.9%; viability, T/C [18]: 22.4%; viability, T/C [19]: 30.7%; viability, T/C [20]: 27%; viability, T/C [21]: 27.7%; viability, T/C [22]: 25.6%; viability, T/C [23]: 23.5%; viability, T/C [24]: 22.6%; viability, T/C [25]: 15.7%; viability, T/C [26]: 12.8%; viability, T/C [27]: 11%; viability, T/C [28]: 9.77%; viability, T/C [29]: 6.12%; viability, T/C [30]: 4.56%
[2H]c1nc(C)nc([2H])c1-c1cc(NC[C@@H](C)c2cccc3c(C(=O)NC)ccnc23)ncn1 + CC[C@@]1(O)C(=O)OCc2c1cc1n(c2=O)Cc2cc3c(CN(C)C)c(O)ccc3nc2-1 | > 10000 nM | 1350 nM | < 31.6 nM | < 31.6 nM | < 31.6 nM | 94.2% | 90.5% | 95.4% | 94.6% | 88.9% | 79.9% | 58.9% | 51.1% | 58.7% | 48.3% | 47.9% | 39.4% | 36.5% | 35.3% | 34.5% | viability, T/C [16]: 36.6%; viability, T/C [17]: 34.2%; viability, T/C [18]: 31.6%; viability, T/C [19]: 34%; viability, T/C [20]: 32.6%; viability, T/C [21]: 30.1%; viability, T/C [22]: 31.4%; viability, T/C [23]: 33.1%; viability, T/C [24]: 26%; viability, T/C [25]: 19.9%; viability, T/C [26]: 17.5%; viability, T/C [27]: 15.1%; viability, T/C [28]: 17%; viability, T/C [29]: 14.2%; viability, T/C [30]: 8.53%
